Reference: US11214803B2, “Modulators of YAP1 expression” (Ionis Pharmaceuticals, Inc., priority 2019, dated 2022)
Strand notation (5' to 3'): a small letter for the sugar, then the base; units joined by * are phosphorothioate-linked, units joined directly phosphodiester-linked; [ ] holds rarer units or linkages, { } end groups; capitals alone tell only the bases. k = constrained ethyl (cEt); [5mC] = 5-methylcytosine; d = 2'-deoxy (DNA)

Legend:
Yap1 mRNA [1] = assay: Dose-dependent inhibition of human Yap1 in A-431 cells (Example 7, 10,000 cells per well, RTS36584); assay type: cell-based; details: free uptake; for Yap1 mRNA, % UTC: A-431 cells 10,000 cells per well, 48 hours
In short: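 A-431 cells at 10,000 per well received modified oligonucleotides by free uptake at several doses. After about 48 hours, Yap1 mRNA was quantified with primer-probe set RTS36584, normalized to RIBOGREEN total RNA and expressed as % untreated control. IC50 came from linear regression on a log/linear plot.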

[2] = Tolerability in Balb/c mice, plasma chemistry markers (Example 12); assay type: in vivo; details: 50 mg/kg subcutaneously twice a week for four weeks
Protocol: Balb/c mice were treated with modified oligonucleotides selected from studies described above and evaluated for changes in the levels of various plasma chemistry markers.
(§1) Groups of male Balb/c mice at 6-7 weeks of age (obtained from Taconic) were injected subcutaneously twice a week for four weeks (for a total of 8 treatments) with 50 mg/kg of modified oligonucleotides. One group of male Balb/c mice was injected with PBS. Mice were euthanized on day 26 post start of treatment (24 hours following the final administration).

[3] = Tolerability in Balb/c mice, body and organ weights (Example 12); assay type: in vivo; details: male Balb/c mice, 50 mg/kg s.c. twice a week for four weeks (8 treatments), end of study (day 26)
Protocol: as §1
Body weights of Balb/c mice were measured at the end of the study, and the average body weight for each group is presented in the table below. Modified oligonucleotides that caused any changes in organ weights outside the expected range for modified oligonucleotides were excluded from further studies.

Yap1 mRNA [4] = assay: Antisense inhibition of human Yap1 in A-431 cells by cEt gapmers, single dose (Example 1, RTS4814); assay type: cell-based; details: Table 1; A-431 cells, free uptake, 2,000 nM, approximately 48 hours, RTS4814; Yap1 mRNA relative to untreated control cells
In short: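 Free uptake of 2,000 nM 3-10-3 cEt gapmer (16-mer, full phosphorothioate, 5-methylcytosines) in A-431 cells for ~48 h. Yap1 mRNA quantified by qRT-PCR with set RTS4814, normalized to total RNA (RiboGreen), and expressed as % of untreated control; asterisked values target the amplicon region.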

Yap1 mRNA [5] = assay: Antisense inhibition of human Yap1 in SNU-449 cells by modified oligonucleotides, single dose (Example 5, RTS36584); assay type: cell-based
In short: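 SNU-449 cells (10,000/well) took up 2,000 nM oligonucleotide by free uptake for about 48 h. Yap1 mRNA was measured by qRT-PCR with primer probe set RTS36584 and normalised to RIBOGREEN total RNA. Values are % of untreated control; asterisked oligos target the amplicon region.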

[6] = Table 59, A-431 cells 10,000 cells per well

| Substance | Yap1 mRNA, % UTC (Yap1 mRNA [1]; Table 59, 15.6 nM) | Yap1 mRNA, % UTC (Yap1 mRNA [1]; Table 59, 62.5 nM) | Yap1 mRNA, % UTC (Yap1 mRNA [1]; Table 59, 4000.00 nM) | IC50 (Yap1 mRNA [1]; [6]) | ALT [2] | AST [2] | BUN [2] | TBIL [2] | Kidney weight [3] | Liver weight [3] | Spleen weight [3] | body weight [3] | other results |
| --- | --- | --- | --- | --- | --- | --- | --- | --- | --- | --- | --- | --- | --- |
| 958553 (k[5mC]*k[5mC]*kA*dT*dT*dA*dT*dT*dA*d[5mC]*dT*d[5mC]*d[5mC]*kT*kG*kT; antisense) [compound 958553] | 68 % UTC | 23 % UTC | 5 % UTC | 30 nM | 174 U/L | 227 U/L | 29 mg/dL | 0.20 mg/dL | 0.29 g | 1.01 g | 0.11 g | 21 g |  |
| 958729 (kG*kT*k[5mC]*dA*dG*dT*dT*dA*dT*d[5mC]*d[5mC]*dT*dA*kT*k[5mC]*kT; antisense) [compound 958729] |  |  |  |  | 4368 U/L | 4503 U/L | 30 mg/dL | 2.15 mg/dL | 0.24 g | 1.32 g | 0.05 g | 15 g | Yap1 mRNA, % UTC (Yap1 mRNA [1]; Table 61, 15.6 nM): 73 % UTC; Yap1 mRNA, % UTC (Yap1 mRNA [1]; Table 61, 62.5 nM): 44 % UTC; Yap1 mRNA, % UTC (Yap1 mRNA [1]; Table 61, 4000.00 nM): 4 % UTC; IC50 (Yap1 mRNA [1]; Table 61, A-431 cells 10,000 cells per well): 50 nM |
| 958498 (kG*kA*kG*dT*dA*dT*dG*dT*dG*dG*d[5mC]*dA*dA*kT*kA*kA; antisense) [compound 958498] | 70 % UTC | 21 % UTC | 2 % UTC | 20 nM | 1441 U/L | 3197 U/L | 12 mg/dL | 0.74 mg/dL | 0.45 g | 1.51 g | 0.19 g | 20 g |  |
| 715487 (antisense kA*kT*kT*dA*d[5mC]*dT*dT*d[5mC]*dA*dT*dA*dG*d[5mC]*kT*kT*kA) [Compound 715487] |  |  |  |  |  |  |  |  |  |  |  |  | YAP1 (% UTC) (Yap1 mRNA [4]): 22 % UTC; YAP1 (% UTC) (Yap1 mRNA [5]; Table 39, SNU-449 cells, 10,000 cells per well, free uptake, 2,000 nM oligonucleotide, approx. 48 hours, RTS36584, normalized to RIBOGREEN, Yap1 mRNA relative to untreated control): 12 % UTC; YAP1 (% UTC) (Yap1 mRNA [5]; Table 40 (separate experiment), SNU-449 cells, 10,000 cells per well, free uptake, 2,000 nM oligonucleotide, approx. 48 hours, RTS36584, normalized to RIBOGREEN, Yap1 mRNA relative to untreated control): 28 % UTC; YAP1 (% UTC) (Yap1 mRNA [5]; Table 41, SNU-449 cells, 10,000 cells per well, free uptake, 2,000 nM modified oligonucleotide, approximately 48 hours, RTS36584, normalized to RIBOGREEN, Yap1 mRNA relative to untreated control cells): 28 % UTC; YAP1 (% UTC) (Yap1 mRNA [5]; Table 42 (separate experiment), SNU-449 cells, 10,000 cells per well, free uptake, 2,000 nM modified oligonucleotide, approximately 48 hours, RTS36584, normalized to RIBOGREEN, Yap1 mRNA relative to untreated control cells): 29 % UTC; YAP1 (% UTC) (Yap1 mRNA [5]; Table 43 experiment, SNU-449 cells, 10,000 cells per well, free uptake, 2,000 nM, approximately 48 hours, RTS36584, Yap1 mRNA normalized to RIBOGREEN, relative to untreated control cells): 25 % UTC; YAP1 (% UTC) (Yap1 mRNA [5]; Table 44 experiment, SNU-449 cells, 10,000 cells per well, free uptake, 2,000 nM, approximately 48 hours, RTS36584, Yap1 mRNA normalized to RIBOGREEN, relative to untreated control cells): 18 % UTC; YAP1 (% UTC) (Yap1 mRNA [5]; Table 45, Yap1 mRNA as percent of untreated control, SNU-449 cells, single dose): 28 % UTC; YAP1 (% UT) (Yap1 mRNA [5]; Table 46, Yap1 mRNA as percent of untreated control, SNU-449 cells, single dose): 25 % UT; YAP1 (% UT) (Yap1 mRNA [5]; Table 48, Yap1 mRNA level relative to untreated control, modified oligonucleotides targeting SEQ ID NO.: 1 and 2): 34 % UT; YAP1 (% UT) (Yap1 mRNA [5]; Table 49, Yap1 mRNA level relative to untreated control, modified oligonucleotides targeting SEQ ID NO.: 1 and 2): 30 % UT; YAP1 (% UT) (Yap1 mRNA [5]; Table 50, Yap1 mRNA remaining as percent of untreated control (UT), SNU-449 cells, single dose): 31 % UT; YAP1 (% UT) (Yap1 mRNA [5]; Table 51, Yap1 mRNA remaining as percent of untreated control (UT), SNU-449 cells, single dose): 24 % UT; YAP1 (% UT) (Yap1 mRNA [5]; Table 52, Yap1 mRNA, modified oligonucleotides targeting SEQ ID NO: 1 and 2): 29 % UT; YAP1 (% UT) (Yap1 mRNA [5]; Yap1 mRNA, percent of untreated control, modified oligonucleotides targeting SEQ ID NO: 1 and 2, Table 47): 39 % UT |
| 958375 (antisense kA*kA*kA*dG*d[5mC]*d[5mC]*dT*dT*dA*dG*dA*dG*dT*k[5mC]*kA*kA) [compound 958375] |  |  |  |  | 2736 U/L | 3013 U/L | 22 mg/dL | 0.43 mg/dL | 0.39 g | 2.00 g | 0.12 g | 23 g | Yap1 mRNA, % UTC (Yap1 mRNA [1]; Table 56, 15.6 nM): 74 % UTC; Yap1 mRNA, % UTC (Yap1 mRNA [1]; Table 56, 62.5 nM): 35 % UTC; Yap1 mRNA, % UTC (Yap1 mRNA [1]; Table 56, 4000.00 nM): 5 % UTC; IC50 (Yap1 mRNA [1]; Table 56, A-431 cells 10,000 cells per well): 40 nM |
